From ChEMBL document CHEMBL1142788, “Synthesis and antibacterial activity of alkyl derivatives of the glycopeptide antibiotic A40926 and their amides” (2005)
≈ marks a conversion by molar mass, not a printed value.

What was measured:
[1] = tested on: Enterococcus faecium; assay: Minimum inhibitory concentration against vancomycin-A Enterococcus faecium in the presence of 30% bovine serum (n=1) (range = 2>128mg/l); type: functional
[2] = tested on: Enterococcus faecalis; assay: Minimum inhibitory concentration against vancomycin-sensitive Enterococcus faecalis in the presence of 30% bovine serum (n=3) (range = 0.5-1mg/l); type: functional
[3] = tested on: Staphylococcus aureus; assay: Minimum inhibitory concentration against methicillin-sensitive Staphylococcus aureus
[4] = tested on: Staphylococcus haemolyticus; assay: Minimum inhibitory concentration against Staphylococcus haemolyticus in the presence of 30% bovine serum; type: functional
[5] = tested on: Staphylococcus epidermidis; assay: Minimum inhibitory concentration against methicillin-resistant Staphylococcus epidermidis in the presence of 30% bovine serum; type: functional
[6] = tested on: Staphylococcus aureus; assay: Minimum inhibitory concentration against methicillin-resistant Staphylococcus aureus
[7] = tested on: Staphylococcus epidermidis; assay: Minimum inhibitory concentration against methicillin-sensitive Staphylococcus epidermidis in the presence of 30% bovine serum; type: functional
[8] = tested on: Enterococcus faecalis; assay: Minimum inhibitory concentration against vancomycin-A Enterococcus faecalis in the presence of 30% bovine serum (n=4); type: functional
[9] = tested on: Enterococcus faecium; assay: Minimum inhibitory concentration against vancomycin-sensitive Enterococcus faecium in the presence of 30% bovine serum(n=1); type: functional
[10] = tested on: Enterococcus faecalis; assay: Minimum inhibitory concentration against vancomycin-A Enterococcus faecalis in the presence of 30% bovine serum(n=4) (range = 16>128mg/L); type: functional
[11] = tested on: Enterococcus faecium; assay: Minimum inhibitory concentration against vancomycin-A Enterococcus faecium in the presence of 30% bovine serum (n=1) (range = 1>128mg/l); type: functional
[12] = tested on: Enterococcus faecalis; assay: Minimum inhibitory concentration against vancomycin-sensitive Enterococcus faecalis in the presence of 30% bovine serum (n=3); type: functional
[13] = tested on: Enterococcus faecalis; assay: Minimum inhibitory concentration against vancomycin-A Enterococcus faecalis in the presence of 30% bovine serum (n=4) (range = 2-4 mg/L); type: functional
[14] = tested on: Enterococcus faecalis; assay: Minimum inhibitory concentration against vancomycin-sensitive Enterococcus faecalis in the presence of 30% bovine serum(n=3)(range = 0.25-1mg/l); type: functional
[15] = tested on: Enterococcus faecium; assay: Minimum inhibitory concentration against vancomycin-A Enterococcus faecium in the presence of 30% bovine serum (n=1) (range = 0.5>128mg/l); type: functional
[16] = tested on: Enterococcus faecalis; assay: Minimum inhibitory concentration against vancomycin-sensitive Enterococcus faecalis in the presence of 30% bovine serum(n=3)(range =0.125-0.25 mg/l); type: functional
[17] = tested on: Enterococcus faecium; assay: Minimum inhibitory concentration against vancomycin-A Enterococcus faecium in the presence of 30% bovine serum (n=1) (range = 2-64mg/L); type: functional
[18] = tested on: Enterococcus faecalis; assay: Minimum inhibitory concentration against vancomycin-A Enterococcus faecalis in the presence of 30% bovine serum (n=4) (Range = 0.125 - 16 mg/L); type: functional
[19] = tested on: Enterococcus faecium; assay: Minimum inhibitory concentration against vancomycin-A Enterococcus faecium in the presence of 30% bovine serum (n=1) (range = 816 mg/L); type: functional
[20] = tested on: Enterococcus faecium; assay: Minimum inhibitory concentration against vancomycin-A Enterococcus faecium in the presence of 30% bovine serum (n=1) (range = 64>128mg/L); type: functional
[21] = tested on: Enterococcus faecalis; assay: Minimum inhibitory concentration against vancomycin-sensitive Enterococcus faecalis in the presence of 30% bovine serum(n=3)(range = 0.5-1mg/l); type: functional
[22] = tested on: Enterococcus faecalis; assay: Minimum inhibitory concentration against vancomycin-A Enterococcus faecalis in the presence of 30% bovine serum(n=4) (range = 0.5-8 mg/L); type: functional
[23] = tested on: Enterococcus faecium; assay: Minimum inhibitory concentration against vancomycin-A Enterococcus faecium in the presence of 30% bovine serum (n=1); type: functional
[24] = tested on: Enterococcus faecium; assay: Minimum inhibitory concentration against vancomycin-A Enterococcus faecium in the presence of 30% bovine serum (n=1) (range = 0.25-32mg/l); type: functional
[25] = tested on: Enterococcus faecalis; assay: Minimum inhibitory concentration against vancomycin-A Enterococcus faecalis in the presence of 30% bovine serum(n=4) (range = 0.5-8mg/L); type: functional
[26] = tested on: Enterococcus faecalis; assay: Minimum inhibitory concentration against vancomycin-sensitive Enterococcus faecalis in the presence of 30% bovine serum(n=3); type: functional
[27] = tested on: Enterococcus faecalis; assay: Minimum inhibitory concentration against vancomycin-sensitive Enterococcus faecalis in the presence of 30% bovine serum (n=3) (range = 0.125-0.5); type: functional
[28] = tested on: Enterococcus faecalis; assay: Minimum inhibitory concentration against vancomycin-A Enterococcus faecalis (n=4) (range = 2-128mg/L)
[29] = tested on: Enterococcus faecium; assay: Minimum inhibitory concentration against vancomycin-A Enterococcus faecium in the presence of 30% bovine serum (n=1) (range = 0.125-128mg/l); type: functional
[30] = tested on: Enterococcus faecalis; assay: Minimum inhibitory concentration against vancomycin-sensitive Enterococcus faecalis in the presence of 30% bovine serum(n=3)(range = 0.125 - 0.16 mg/l); type: functional

SMILES | MIC [3] [µg/mL] | MIC [4] [µg/mL] | MIC [5] [µg/mL] | MIC [6] [µg/mL] | MIC [7] [µg/mL] | MIC [9] [µg/mL] | MIC [12] [µg/mL] | further results
CN(Cc1c[nH]c2ccccc12)[C@H]1C(=O)N[C@@H]2Cc3ccc(cc3)Oc3cc4cc(c3O[C@@H]3OC(C(=O)O)C(O)[C@H](O)C3NCc3c[nH]c5ccccc35)Oc3ccc(cc3Cl)[C@@H](O)C3NC(=O)[C@H](NC(=O)[C@@H]4NC(=O)[C@@H](NC2=O)c2cc(cc(O)c2Cl)Oc2cc1ccc2O)c1ccc(O)c(c1)-c1c(O[C@H]2O[C@H](CO)[C@@H](O)[C@H](O)[C@@H]2O)cc(O)cc1[C@@H](C(=O)O)NC3=O (some centres not stated) | 4 (≈ 2.21 µM) | > 128 | 128 | 2 (≈ 1.11 µM) | 64 | 2 |  | MIC [1]: > 128 µg/mL; MIC [2]: 1 µg/mL; MIC [8]: 32 µg/mL
CCCCn1cc(CNC2[C@H](Oc3c4cc5cc3Oc3ccc(cc3Cl)[C@@H](O)C3NC(=O)[C@H](NC(=O)[C@@H]5NC(=O)[C@H]5NC(=O)[C@@H](Cc6ccc(cc6)O4)NC(=O)[C@H](N(C)Cc4cn(CCCC)c6ccccc46)c4ccc(O)c(c4)Oc4cc(O)c(Cl)c5c4)c4ccc(O)c(c4)-c4c(O[C@H]5O[C@H](CO)[C@@H](O)[C@H](O)[C@@H]5O)cc(O)cc4[C@@H](C(=O)O)NC3=O)OC(C(=O)O)C(O)[C@@H]2O)c2ccccc21 (some centres not stated) | 4 (≈ 2.08 µM) | 64 | 32 | 2 (≈ 1.04 µM) | 4 | < 0.125 | 0.25 | MIC [10]: > 128 µg/mL; MIC [11]: > 128 µg/mL
CCCCc1ccc(CNC2[C@H](Oc3c4cc5cc3Oc3ccc(cc3Cl)[C@@H](O)C3NC(=O)[C@H](NC(=O)[C@@H]5NC(=O)[C@H]5NC(=O)[C@@H](Cc6ccc(cc6)O4)NC(=O)[C@H](N(C)Cc4ccc(CCCC)cc4)c4ccc(O)c(c4)Oc4cc(O)c(Cl)c5c4)c4ccc(O)c(c4)-c4c(O[C@H]5O[C@H](CO)[C@@H](O)[C@H](O)[C@@H]5O)cc(O)cc4[C@@H](C(=O)O)NC3=O)OC(C(=O)O)C(O)[C@@H]2O)cc1 (some centres not stated) |  | 8 | 8 | 2 (≈ 1.09 µM) | 4 | 1 |  | MIC [13]: 4 µg/mL; MIC [14]: 1 µg/mL; MIC [15]: > 128 µg/mL
CCCCCCCCCCc1ccc(CNC2[C@H](Oc3c4cc5cc3Oc3ccc(cc3Cl)[C@@H](O)C3NC(=O)[C@H](NC(=O)[C@@H]5NC(=O)[C@H]5NC(=O)[C@@H](Cc6ccc(cc6)O4)NC(=O)[C@H](NC)c4ccc(O)c(c4)Oc4cc(O)c(Cl)c5c4)c4ccc(O)c(c4)-c4c(O[C@H]5O[C@H](CO)[C@@H](O)[C@H](O)[C@@H]5O)cc(O)cc4[C@@H](C(=O)O)NC3=O)OC(C(=O)O)C(O)[C@@H]2O)cc1 (some centres not stated) | 4 (≈ 2.25 µM) | 32 |  | 2 (≈ 1.12 µM) | 32 | 0.5 |  | MIC [16]: 0.125 µg/mL; MIC [17]: > 64 µg/mL
CCCCCCOc1ccc(CNC2[C@H](Oc3c4cc5cc3Oc3ccc(cc3Cl)[C@@H](O)C3NC(=O)[C@H](NC(=O)[C@@H]5NC(=O)[C@H]5NC(=O)[C@@H](Cc6ccc(cc6)O4)NC(=O)[C@H](NC)c4ccc(O)c(c4)Oc4cc(O)c(Cl)c5c4)c4ccc(O)c(c4)-c4c(O[C@H]5O[C@H](CO)[C@@H](O)[C@H](O)[C@@H]5O)cc(O)cc4[C@@H](C(=O)NCCCN(C)C)NC3=O)OC(C(=O)NCCCN(C)C)C(O)[C@@H]2O)cc1 (some centres not stated) | > 0.125 | 16 |  |  | < 0.125 | < 0.125 | < 0.125 | MIC [18]: 16 µg/mL; MIC [19]: > 16 µg/mL
CN(Cc1ccc2ccccc2c1)[C@H]1C(=O)N[C@@H]2Cc3ccc(cc3)Oc3cc4cc(c3O[C@@H]3OC(C(=O)O)C(O)[C@H](O)C3N)Oc3ccc(cc3Cl)[C@@H](O)C3NC(=O)[C@H](NC(=O)[C@@H]4NC(=O)[C@@H](NC2=O)c2cc(cc(O)c2Cl)Oc2cc1ccc2O)c1ccc(O)c(c1)-c1c(O[C@H]2O[C@H](CO)[C@@H](O)[C@H](O)[C@@H]2O)cc(O)cc1[C@@H](C(=O)O)NC3=O (some centres not stated) | 2 (≈ 1.18 µM) | 128 | 32 | 2 (≈ 1.18 µM) | 16 | 1 |  | MIC [20]: > 128 µg/mL; MIC [21]: 1 µg/mL; MIC [8]: 128 µg/mL
CCCCCCCCOc1ccc(CNC2[C@H](Oc3c4cc5cc3Oc3ccc(cc3Cl)[C@@H](O)C3NC(=O)[C@H](NC(=O)[C@@H]5NC(=O)[C@H]5NC(=O)[C@@H](Cc6ccc(cc6)O4)NC(=O)[C@H](NC)c4ccc(O)c(c4)Oc4cc(O)c(Cl)c5c4)c4ccc(O)c(c4)-c4c(O[C@H]5O[C@H](CO)[C@@H](O)[C@H](O)[C@@H]5O)cc(O)cc4[C@@H](C(=O)NCCCN(C)C)NC3=O)OC(C(=O)NCCCN(C)C)C(O)[C@@H]2O)cc1 (some centres not stated) | 0.5 (≈ 0.258 µM) | 4 |  | 0.25 (≈ 0.129 µM) | 0.125 | 0.13 | 0.25 | MIC [22]: 8 µg/mL; MIC [23]: 0.8 µg/mL
CN(C)CCCNC(=O)C1O[C@@H](Oc2c3cc4cc2Oc2ccc(cc2Cl)[C@@H](O)C2NC(=O)[C@H](NC(=O)[C@@H]4NC(=O)[C@H]4NC(=O)[C@@H](Cc5ccc(cc5)O3)NC(=O)[C@H](N(C)Cc3c[nH]c5ccccc35)c3ccc(O)c(c3)Oc3cc(O)c(Cl)c4c3)c3ccc(O)c(c3)-c3c(O[C@H]4O[C@H](CO)[C@@H](O)[C@H](O)[C@@H]4O)cc(O)cc3[C@@H](C(=O)NCCCN(C)C)NC2=O)C(NCc2c[nH]c3ccccc23)[C@@H](O)C1O (some centres not stated) | 2 (≈ 1.01 µM) | 2 | 2 | 1 (≈ 0.506 µM) | 1 | 0.25 |  | MIC [24]: 32 µg/mL; MIC [25]: 8 µg/mL; MIC [26]: < 0.125 µg/mL
CCCCn1cc(CNC2[C@H](Oc3c4cc5cc3Oc3ccc(cc3Cl)[C@@H](O)C3NC(=O)[C@H](NC(=O)[C@@H]5NC(=O)[C@H]5NC(=O)[C@@H](Cc6ccc(cc6)O4)NC(=O)[C@H](N(C)Cc4cn(CCCC)c6ccccc46)c4ccc(O)c(c4)Oc4cc(O)c(Cl)c5c4)c4ccc(O)c(c4)-c4c(O[C@H]5O[C@H](CO)[C@@H](O)[C@H](O)[C@@H]5O)cc(O)cc4[C@@H](C(=O)NCCCN(C)C)NC3=O)OC(C(=O)NCCCN(C)C)C(O)[C@@H]2O)c2ccccc21 (some centres not stated) | 0.5 (≈ 0.239 µM) | 0.25 | 2 | 2 (≈ 0.957 µM) | 0.25 | 0.125 |  | MIC [27]: < 0.5 µg/mL; MIC [28]: 128 µg/mL (≈ 61.3 µM); MIC [29]: 128 µg/mL
CCCCCCOc1ccc(CNC2[C@H](Oc3c4cc5cc3Oc3ccc(cc3Cl)[C@@H](O)C3NC(=O)[C@H](NC(=O)[C@@H]5NC(=O)[C@H]5NC(=O)[C@@H](Cc6ccc(cc6)O4)NC(=O)[C@H](NC)c4ccc(O)c(c4)Oc4cc(O)c(Cl)c5c4)c4ccc(O)c(c4)-c4c(O[C@H]5O[C@H](CO)[C@@H](O)[C@H](O)[C@@H]5O)cc(O)cc4[C@@H](C(=O)NCCCN(C)C)NC3=O)OC(C(=O)NCCCN(C)C)C(O)[C@@H]2O)cc1OCC (some centres not stated) | < 0.125 | 2 |  |  | < 0.125 | < 0.125 |  | MIC [30]: < 0.125 µg/mL; MIC [18]: < 16 µg/mL; MIC [23]: > 16 µg/mL
